Usually inhibition stands for the drop in the measured response relative to a control, in per cent. A low value points to a weak effect.

Here are results for 1 molecule from patent US9067894B1, “Compound, composition, and method of activating GIRK potassium channel and use of same for treating conditions of interest” (Vanderbilt University, priority 2013, dated 2015).

Experiment [1] deals with T1, GIRK1/2 (Homo sapiens, UniProt P48051+P48549).
T1 sequence (P48549 1-501): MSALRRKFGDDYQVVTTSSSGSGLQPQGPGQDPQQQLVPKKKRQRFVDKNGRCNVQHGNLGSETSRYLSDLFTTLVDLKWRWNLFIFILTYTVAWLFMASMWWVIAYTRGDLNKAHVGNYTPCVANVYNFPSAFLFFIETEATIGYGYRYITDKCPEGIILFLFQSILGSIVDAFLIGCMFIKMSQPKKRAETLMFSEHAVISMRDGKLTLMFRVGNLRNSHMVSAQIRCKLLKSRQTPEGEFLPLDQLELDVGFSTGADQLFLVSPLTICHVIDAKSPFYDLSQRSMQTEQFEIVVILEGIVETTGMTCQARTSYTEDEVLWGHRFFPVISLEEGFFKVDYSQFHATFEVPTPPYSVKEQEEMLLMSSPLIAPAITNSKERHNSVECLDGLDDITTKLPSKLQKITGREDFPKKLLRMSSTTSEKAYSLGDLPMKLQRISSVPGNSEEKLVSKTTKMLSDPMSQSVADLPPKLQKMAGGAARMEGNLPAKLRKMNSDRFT
T1 sequence (P48051 1-423): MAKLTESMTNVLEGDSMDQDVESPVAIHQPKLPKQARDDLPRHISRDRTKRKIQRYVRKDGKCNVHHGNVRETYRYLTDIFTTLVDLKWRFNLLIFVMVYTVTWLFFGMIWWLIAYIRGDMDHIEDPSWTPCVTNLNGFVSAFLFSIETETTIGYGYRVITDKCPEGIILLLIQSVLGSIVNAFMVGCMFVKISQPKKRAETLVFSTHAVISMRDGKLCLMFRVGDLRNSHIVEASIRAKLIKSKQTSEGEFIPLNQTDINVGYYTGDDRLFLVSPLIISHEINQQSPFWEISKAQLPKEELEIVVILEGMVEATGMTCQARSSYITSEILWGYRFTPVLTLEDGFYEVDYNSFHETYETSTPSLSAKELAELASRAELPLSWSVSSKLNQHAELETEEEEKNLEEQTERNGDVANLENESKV
Description: Thallium flux, pertussis toxin-treated cells co-expressing mGlu8 and GIRK1/2. Format: cell-based. Further details: host or cells: HEK-293. To be noted: 600 ng/ml pertussis toxin; VU0456810 10 μM, glutamate 100 μM. From the text:
Cell Line Construction and Cell Culture. HEK-293 cells co-expressing human GIRK1/2 and rat mGlu8 were generated as previously described (Niswender et al., 2008). A HEK-293 cell line (ATCC, Manassas, Va.) expressing human GIRK1 and human GIRK2 was constructed by transfecting HEK-293 cells with GIRK1 and GIRK2 (Origene, Rockville, Md.) cloned into the pBudCE4.1 vector (Life Technologies, Carlsbad, Calif.) using FuGene 6 (Promega, Madison, Wis.) transfection reagent. Unless otherwise noted, other ion channel-expressing cells were prepared by transfecting HEK-293 cells with individual or combinations of subunits: GIRK1, pCMV6-A-BSD; GIRK2, pCMV6-A-puro; GIRK3, pCMV6-A-hygro; GIRK4, pCMV6-A-AC; Kv7.4, pIRESneo3. The Kir2.1 and hERG-expressing cell lines were made by transfecting T-REx-293 cells (Life Technologies, Carlsbad, Calif.) with Kir2.1 and Kv11.1, respectively, cloned into pcDNA5TO. Monoclonal cell lines were produced by limiting-dilution cloning of antibiotic-resistant cells and functional selection using the thallium flux assay described below. Unless otherwise noted, cells were maintained in Minimal Essential Medium, Alpha Medium (Mediatech, Manassas, Va.) supplemented with 10% fetal bovine serum (Sigma-Aldrich, Saint Louis, Mo.) and GlutaGro (Mediatech, Manassas, Va.), referred to henceforth as cell culture medium. […]

Experiment [2] concerns the target T2, Muscarinic M3 (Homo sapiens, UniProt P20309).
T2 construct: Ricerca (contract laboratory that ran the panel)
Description: Radioligand displacement (Ricerca). It counts as binding.

T2 sequence (P20309 whole entry): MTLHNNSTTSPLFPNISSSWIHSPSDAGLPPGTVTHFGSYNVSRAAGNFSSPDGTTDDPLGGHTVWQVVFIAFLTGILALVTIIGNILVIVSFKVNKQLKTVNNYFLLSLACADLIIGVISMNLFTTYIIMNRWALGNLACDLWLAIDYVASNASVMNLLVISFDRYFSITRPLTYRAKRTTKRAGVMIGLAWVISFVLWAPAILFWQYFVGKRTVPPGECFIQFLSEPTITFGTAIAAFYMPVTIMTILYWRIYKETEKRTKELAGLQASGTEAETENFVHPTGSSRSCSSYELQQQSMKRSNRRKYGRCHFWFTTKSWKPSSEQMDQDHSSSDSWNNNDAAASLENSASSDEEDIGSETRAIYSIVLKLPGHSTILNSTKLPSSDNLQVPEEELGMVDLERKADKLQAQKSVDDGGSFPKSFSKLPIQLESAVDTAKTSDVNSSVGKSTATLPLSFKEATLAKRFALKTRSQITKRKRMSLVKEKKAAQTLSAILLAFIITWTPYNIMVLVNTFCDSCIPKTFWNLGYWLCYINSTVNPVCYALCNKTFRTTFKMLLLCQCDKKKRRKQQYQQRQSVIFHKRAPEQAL

For `Cc1cc(NC(=O)Nc2ccc(F)c(F)c2)n(-c2ccccc2)n1` [VU0456810, 1-(3,4-difluorophenyl)-3-(3-methyl-1-phenyl-1H-pyrazol-5-yl)urea], the “effect of pertussis toxin treatment on evoked thallium flux” value in experiment [1] is on record as “unable to block”. The molecule also had an inhibition at 10 µM in experiment [2] of 13%.
